Data: patent publication US8618082B2, “Lupeol anti-tumor agent and uses thereof” (Wisconsin Alumni Research Foundation, priority 2004, dated 2013)
Entries after “also recorded” stand apart in the source; their conditions may differ.

What was measured:
[1] = test system: p38, Erk1/2, p21, Cyclin D-2 in AsPC-1 cells; test: MAP kinase phosphorylation and p21, Cyclin D-2 expression in AsPC-1 cells; assay type: cell-based
Excerpt: FIG. 25 depicts effect of Lupeol treatment on the phosphorylation of p38 and Erk1/2 in MAP kinase signaling and p21 and Cyclin D-2 protein expression in AsPC-1 cells.

[2] = test system: AsPC-1 cells; test: Viability of AsPC-1 cells, MTT assay; assay type: cell-based; conditions: Lupeol for 24-72 hours
Description: FIG. 20 depicts effect of Lupeol on viability of AsPC-1 cells. The cells were treated with specified concentrations of Lupeol for 24, 48 and 72 h, and cell viability was determined by MTT assay.

[3] = test system: human PSA; test: Serum PSA in athymic nude mice implanted with CWR22Rv1 cells; assay type: in vivo, mouse; conditions: Lupeol 1 mg/animal i.p. three times a week, vs control mice
Excerpt: FIG. 19 depicts effect of Lupeol on human PSA levels in serum of athymic nude mice implanted with CWR22Rv1 cells. Data is represented as mean±SD. * indicates p<0.05.
CW22Rv1 cells once implanted in a xenograft mouse model releases Prostate specific antigen (PSA) in host system and grows rapidly than LNCaP cells. PSA is a well known diagnostic biomarker of prostate cancer.

[4] = test system: LNCaP cells; test: LNCaP viability with anti-Fas mAb alone or combined with Lupeol, MTT assay; assay type: cell-based, human
Description: FIG. 15 depicts effect of Lupeol treatment in combination with anti-Fas mAb on the growth of LNCaP cells and on the expression of Fas receptor in LNCaP and PrEC cells: (a) Cells were treated with specified concentrations anti-Fas mAb for 48 h and cell viability was determined by MTT assay. The values are represented as the percent viable cells where vehicle-treated cells were regarded as 100% viable. Data represents mean value of percent viable cells±S.E of three independent experiments. V represents control and vehicle (DMSO) treated cells respectively. (b). Cells were treated with specified concentrations of Lupeol alone, anti-Fas mAb or with combination (Lupeol+anti-Fas mAb) for 48 h and cell viability was determined by MTT assay. “a” and “b” represent pre-treatment and co-treatment of cells with anti-Fas mAb respectively. The values are represented as the percent viable cells where vehicle-treated cells were regarded as 100% viable. Data represents mean value of percent viable cells±S.E of three independent experiments.

[5] = test system: Ras, PKCα, ODC, pAkt in AsPC-1 cells; test: Ras, PKCα, ODC, PI3K, pAkt expression in AsPC-1 cells; assay type: cell-based
Excerpt: FIG. 23 depicts effect of Lupeol treatment on the expression of Ras, PKCα, ODC, PI3K (P85), pAkt and total Akt, p38 and Erk1/2 proteins in AsPC-1 cells.

[6] = test system: pro-caspases-8 and -9 in LNCaP cells; test: Pro-caspases-8 and -9 expression in LNCaP cells (western blot); assay type: cell-based, human
Description: FIG. 13 depicts effect of Lupeol treatment on protein expression of pro-caspases-8 and -9 in LNCaP cells. Cells were treated with only specified concentrations of Lupeol for 48 h, harvested and total cell lysates were prepared. Expression of pro-caspases-8 and -9 were determined by western blot analysis. Equal loading was confirmed by stripping immunoblots and reprobing them for β-actin. The immunoblots shown here are representative of three independent experiments with similar results.

[7] = test system: Fas receptor, FADD and other death receptors in LNCaP cells; test: Death receptor mediated apoptotic pathway in LNCaP cells (western blot); assay type: cell-based, human
Description: FIG. 14 depicts effect of Lupeol treatment on death receptor mediated apoptotic pathway in LNCaP cells: Cells were treated with vehicle (DMSO+alcohol) only or specified concentrations of Lupeol for 48 h, harvested and total cell lysates were prepared. The expression of death receptors including Fas and death adaptor proteins including FADD were determined by western blot analysis. Equal loading was confirmed by stripping immunoblots and reprobing them for β-actin. The immunoblots shown here are representative of three independent experiments with similar results.

[8] = test system: AsPC-1 cells; test: Apoptosis in AsPC-1 cells by fluorescence microscopy and flow cytometry; assay type: cell-based; conditions: flow cytometry and confocal microscopy
Excerpt: FIG. 21 depicts Lupeol induced apoptosis in AsPC-1 cells as assessed by fluorescence microscopy (Upper Panel) and by flow cytometry (Bottom Panel). Upper panel of FIG. 21 contains the representative micrographs of AsPC-1 cells undergoing apoptosis induced by treatment with Lupeol as assessed by fluorescence microscopy (Upper panel).

**Q.** What does the source list for C=C(C)[C@@H]1CC[C@]2(C)CC[C@]3(C)[C@H](CC[C@@H]4[C@@]5(C)CC[C@H](O)C(C)(C)[C@@H]5CC[C@]43C)[C@@H]12 [Lupeol, Lup-20(29)-en-3β-ol]?
**A.** Cyclin-D2 protein expression [1]: decrease in Cyclin-D2 protein expression; expression of p-21 [1]: increase in the expression of p-21; phosphorylation of Erk 1/2 [1]: increase in the phosphorylation of Erk 1/2; phosphorylation of p38 [1]: significant reduction; cell death of ASPC-1 cells [2]: highly significant dose dependent cell death; serum PSA levels [3]: lower serum PSA levels; combination effect of Lupeol with Fas-agonist (anti-Fas mAb) on cell death ([4]; LNCaP cells, vs additive effect of the two alone): synergistic effect; also recorded: significant synergistic manner; cell death of LNCaP cells ([4]; anti-Fas mAb pretreated LNCaP cells treated with Lupeol (30 μg)): 95-98%; expression of Ras protein [5]: decrease; phosphorylation of Akt [5]: reduction in the phosphorylation of Akt; protein expression of ODC [5]: significant reduction; protein expression of PKCa [5]: significant reduction; activation of Caspase-8 and 9 proteins [6]: induces the activation; expression of inactive (pro-) caspases-8 and -9 ([6]; 48 h): causes disappearance of inactive caspases; expression of cell death-inducing receptor ligands FAS-L, APO-3L and TRAIL [7]: no significant change; expression/activation of other death receptors (TRADD, TNFR-1, APO-3, DR-4/5) [7]: no change in the protein expression; also recorded: No other death receptor such as TNFR1, DR4/5 were activated; expression of FADD protein ([7]; 48 h): increase in the expression of FADD protein; also recorded: induces the expression; expression of FAS receptor protein ([7]; 48 h): significant increase; also recorded: induces the expression; induction of apoptosis in ASPC-1 cells [8]: inducing apoptosis
